# According to patent US8575342B2, “HIV inhibiting 5-heterocyclyl pyrimidines” (Tibotech Pharmaceuticals Ltd., priority 2004, dated 2013):
# Where two headings read alike, the source gives them in different places.
# Legend:
# [1] = test system: HIV strain E, mutations L100I and K103N in HIV reverse transcriptase; test: cellular antiviral assay, strain E; format: cell-based; details: for pEC50 E: strain E, L100I and K103N; for EC50: Human immunodeficiency virus 1, read-out: pEC50 E (converted)
# Description: Strain E contains mutations L100I and K103N in HIV reverse transcriptase, […]
# [2] = test system: wild type HIV-LAI strain (IIIB); test: cellular antiviral assay, strain IIIB; format: cell-based; details: for EC50: read-out: pEC50 IIIB (converted)
# Description: Strain IIIB is wild type HIV-LAI strain
# [3] = test system: HIV strain C, mutation L100I in HIV reverse transcriptase; test: cellular antiviral assay, strain C; format: cell-based; details: for pEC50 C: strain C, L100I; for EC50: Human immunodeficiency virus 1, read-out: pEC50 C (converted)
# Description: Strain C contains mutation L100I in HIV reverse transcriptase, […]
# [4] = test system: HIV strain D, mutation Y188L in HIV reverse transcriptase; test: cellular antiviral assay, strain D; format: cell-based; details: for pEC50 D: strain D, Y188L; for EC50: Human immunodeficiency virus 1, read-out: pEC50 D (converted)
# Description: Strain D contains mutation Y188L in HIV reverse transcriptase, […]
# [5] = test system: HIV strain B, mutation K103N in HIV reverse transcriptase; test: cellular antiviral assay, strain B; format: cell-based; details: for EC50: Human immunodeficiency virus 1, read-out: pEC50 B (converted)
# Description: Strain B contains mutation K103N in HIV reverse transcriptase, […]
# [6] = cellular antiviral assay, strain G; format: cell-based, HIV; details: Human immunodeficiency virus 1, read-out: pEC50 G (converted)
# [7] = Human immunodeficiency virus 1, IIIB
SMILES,pEC50 E [1],"pEC50 IIIB ([2]; strain IIIB, wild type HIV-LAI)",pEC50 C [3],pEC50 D [4],"pEC50 B ([5]; strain B, K103N)",EC50 [1] [nM],"EC50 [2, 7] [nM]",EC50 [3] [nM],EC50 [6] [nM],EC50 [4] [nM],EC50 [5] [nM],"EC50 ([2]; Human immunodeficiency virus 1, strain IIIB, wild type HIV-LAI) [nM]"
Cc1cc(C=CC#N)cc(C)c1Nc1nc(Nc2ccc(C#N)cc2)ncc1-c1nc(-c2ccccc2)no1 (mixture of isomers) [Compound 13],7,7.8,7.8,7,7.7,,,,,,,
Cc1cc(/C=C/C#N)cc(C)c1Nc1nc(Nc2ccc(C#N)cc2)ncc1-n1cccc1 [Compound 1],,,,,,3.98,1,1,1580,6.31,0.794,
Cc1cc(/C=C/C#N)cc(C)c1Nc1nc(Nc2ccc(C#N)cc2)ncc1-c1cccnc1 [Compound 2],,,,,,12.6,0.631,2,7940,3.98,0.631,
Cc1cc(/C=C/C#N)cc(C)c1Nc1nc(Nc2ccc(C#N)cc2)ncc1-c1ccco1 [Compound 3],,,,,,3.16,,0.631,631,2.51,0.794,0.631
N#C/C=C/c1cc(F)c(Nc2nc(Nc3ccc(C#N)cc3)ncc2-n2cccc2)c(Cl)c1 [Compound 4],,,,,,3.16,1,0.794,2510,12.6,1,
Cc1cc(/C=C/C#N)cc(C)c1Nc1nc(Nc2ccc(C#N)cc2)ncc1-c1nc(-c2ccco2)no1 [Compound 15],4.6,7.6,6.7,6.2,,,,,,,,
Cc1noc(-c2cnc(Nc3ccc(C#N)cc3)nc2Nc2c(C)cc(/C=C/C#N)cc2C)n1 [Compound 16],7.7,8.3,8.4,7.8,,,,,,,,
Cc1cc(/C=C/C#N)cc(C)c1Nc1nc(Nc2ccc(C#N)cc2)ncc1-c1nc(-c2cccs2)no1 [Compound 17],5.0,7.0,6.0,5.7,,,,,,,,
Cc1cc(/C=C/C#N)cc(C)c1Nc1nc(Nc2ccc(C#N)cc2)ncc1-c1ncccc1N [Compound 20],7.1,8.7,,,,,,,,,,
